Drawing on patent publication US20230339851A1, “CXCR6 SULFONAMIDE COMPOUNDS” (CHEMOCENTRYX, INC., priority 2022, published 2023), this text covers IC50 for 65 molecules.

pIC50: −log10 of the molar value.

The assay concerns the target T1, human CXCR6 (Homo sapiens, UniProt O00574).
T1 construct: expressed in transfected cells
Briefly: Radioligand Binding Assay (125I-CXCL16 displacement). The note with it: L1.2 cells stably transfected with human CXCR6 cDNA, 0.1 nM 125I-CXCL16, 4° C., three-hour incubation; read-out: Potency (IC50). In a few lines: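 Displacement of 0.1 nM 125I-CXCL16 from human CXCR6 stably expressed in L1.2 cells was measured after a 3 h, 4 °C incubation in HBSS with 0.1% BSA. Filter-bound cpm were counted, and IC50 values came from a 3-parameter nonlinear fit.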

T1 sequence (O00574 whole entry): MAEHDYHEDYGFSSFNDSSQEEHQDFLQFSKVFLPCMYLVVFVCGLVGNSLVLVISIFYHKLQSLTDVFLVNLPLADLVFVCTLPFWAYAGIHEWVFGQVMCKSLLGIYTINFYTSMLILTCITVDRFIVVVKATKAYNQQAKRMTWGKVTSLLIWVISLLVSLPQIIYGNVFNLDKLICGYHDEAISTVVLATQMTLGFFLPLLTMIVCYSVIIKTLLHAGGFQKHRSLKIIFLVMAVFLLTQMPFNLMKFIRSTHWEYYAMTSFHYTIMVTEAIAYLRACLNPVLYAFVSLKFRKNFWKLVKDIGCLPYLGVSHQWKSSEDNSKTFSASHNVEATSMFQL

On to `CCOc1cc(NC(=O)c2ccc(OC)cc2)ccc1S(=O)(=O)Nc1cccc(OC(F)(F)F)c1` [Example 1.568], for which the pIC50 is 5.70 to 6.12.
For the molecule `CCOc1cc(NC(=O)[C@@H](O)C(C)C)ccc1S(=O)(=O)Nc1ccc(CC)c(C(F)(F)F)c1` [Example 1.411], the negative logarithm of the IC50 (pIC50) was ≥ 6.70.
The value for `CCCc1cc(NC(=O)[C@@H](CO)C2CC2)ccc1S(=O)(=O)Nc1cccc(OC(F)(F)F)c1` [Example 1.099] was ≥ 6.70; that for `CCOc1cc(NC(=O)[C@@H](CO)c2ccccc2)ccc1S(=O)(=O)Nc1cccc(Cl)c1C` [Example 1.221] was 4.70 to 5.70; that for `CCOc1cc(NC(=O)C(CC2CCOCC2)C(=O)O)ccc1S(=O)(=O)Nc1cccc(OC(F)(F)F)c1` (centres unmarked) [Example 1.118] was ≥ 6.70.
The value for `COc1cc(NC(=O)c2ccnn2C)ccc1S(=O)(=O)Nc1ccc(Cl)c(C(F)(F)F)c1` [Example 1.489] was 5.70 to 6.12; that for `CCOc1cc(NC(=O)C(C(=O)NCCO)C2CCCC2)ccc1S(=O)(=O)Nc1cccc(OC(F)(F)F)c1` (centres unmarked) [Example 1.339] was ≥ 6.70.
In the case of `CCOc1cc(NC(=O)[C@@H]2CCOCC[C@@H]2O)ccc1S(=O)(=O)Nc1cccc(OC(F)(F)F)c1` [Example 1.513] it was 6.12 to 6.70; in that of `CCOc1cc(NC(=O)C(CO)CC2CC2)ccc1S(=O)(=O)Nc1cccc(OC(F)(F)F)c1` (centres unmarked) [Example 1.014], ≥ 6.70; in that of `O=C(Nc1ccc(S(=O)(=O)Nc2cccc(C(F)(F)F)c2)c(F)c1)c1ccccc1` [Example 1.549], 4.70 to 5.70.
As for `CCOc1cc(NC(=O)[C@@H](CO)C(C)C)ccc1S(=O)(=O)Nc1cccc(OC(F)(F)F)c1` [Example 1.022], the pIC50 was ≥ 6.70.
In the case of `CCc1cc(NC(=O)[C@@H](CO)c2ccccc2)ccc1S(=O)(=O)Nc1cccc(OC(F)(F)F)c1` [Example 1.163], the pIC50 was ≥ 6.70.
As for `CCOc1cc(NC(=O)c2cncnc2)ccc1S(=O)(=O)Nc1cccc(OC(F)(F)F)c1` [Example 1.171], the negative logarithm of the IC50 (pIC50) was ≥ 6.70.
Consider `CCOc1cc(NC(=O)c2ccnnc2)ccc1S(=O)(=O)Nc1cccc(OC(F)(F)F)c1` [Example 1.530], for which the pIC50 is ≥ 6.70.
Take `CCn1nccc1C(=O)Nc1ccc(S(=O)(=O)Nc2cccc(C(F)(F)F)c2)c(C)c1` [Example 1.519]: the pIC50 is 6.12 to 6.70.
In the case of `CCOc1cc(NC(=O)[C@@H](N)c2ccccc2)ccc1S(=O)(=O)Nc1ccc(C)c(OC(F)(F)F)c1` [Example 1.462] it was ≥ 6.70; in that of `CCOc1cc(NC(=O)C(O)c2cccc(Cl)c2)ccc1S(=O)(=O)Nc1cccc(OC(F)(F)F)c1` (centres unmarked) [Example 1.528], ≥ 6.70; in that of `COc1cc(NC(=O)C2C3CCC(C3)N2C(=O)OC(C)(C)C)ccc1S(=O)(=O)Nc1cccc(C(F)(F)F)c1` (centres unmarked) [Example 1.506], 5.70 to 6.12.
The value for `Cc1cc(NC(=O)c2ccoc2C)ccc1S(=O)(=O)Nc1cccc(C(F)(F)F)c1` [Example 1.019] was 6.12 to 6.70; that for `COc1cc(NC(=O)c2ccnn2C)ccc1S(=O)(=O)Nc1ccc(Cl)cc1` [Example 1.114] was 6.12 to 6.70; that for `CCOc1cc(NC(=O)c2ccnc(N)c2)ccc1S(=O)(=O)Nc1cccc(OC(F)(F)F)c1` [Example 1.117] was ≥ 6.70.
Consider `CCOc1cc(NC(=O)[C@@H](O)C(C)C)ccc1S(=O)(=O)Nc1cccc(Cl)c1Cl` [Example 1.555], for which the pIC50 was 4.70 to 5.70.
In the case of `COc1cc(NC(=O)C2CCOC2)ccc1S(=O)(=O)Nc1cccc(OC(F)(F)F)c1` (centres unmarked) [Example 1.042] it was 5.70 to 6.12; in that of `CCOc1cc(NC(=O)C2CCN(C)CC2)ccc1S(=O)(=O)Nc1cccc(OC(F)(F)F)c1` [Example 1.192], 4.70 to 5.70; in that of `COCc1cc(NC(=O)[C@@H](O)C(C)C)ccc1S(=O)(=O)Nc1cccc(OC(F)(F)F)c1` [Example 1.188], ≥ 6.70.
Regarding `CCOc1cc(NC(=O)[C@@H](NC=O)C(C)C)ccc1S(=O)(=O)Nc1cccc(OC(F)(F)F)c1` [Example 1.298], the pIC50 is ≥ 6.70.
In the case of `CCOc1cc(NC(=O)CC(O)CC2CCOCC2)ccc1S(=O)(=O)Nc1cccc(OC(F)(F)F)c1` (centres unmarked) [Example 1.131], the pIC50 is 4.70 to 5.70.
With `CCOc1cc(NC(=O)[C@H](N)C(C)C)ccc1S(=O)(=O)Nc1cccc(OC(F)(F)F)c1` [Example 1.158], the pIC50 was ≥ 6.70.
`CCOc1cc(NC(=O)C2CCO[C@@H]2C)ccc1S(=O)(=O)Nc1cccc(OC(F)(F)F)c1` (mixture of isomers) [Example 1.137]: the pIC50 is 6.12 to 6.70.
The value for `CCOc1cc(NC(=O)C2(c3ccccc3)CC2)ccc1S(=O)(=O)Nc1cccc(OC(F)(F)F)c1` [Example 1.394] was 5.70 to 6.12; that for `CCOc1cc(NC(=O)c2ccc[n+]([O-])c2)ccc1S(=O)(=O)Nc1cccc(OC(F)(F)F)c1` [Example 1.510] was ≥ 6.70; that for `CCOc1cc(NC(=O)C2CCC(=O)N(CC)C2)ccc1S(=O)(=O)Nc1cccc(OC(F)(F)F)c1` (centres unmarked) [Example 1.120] was 4.70 to 5.70.
With `COc1cc(NC(=O)CC2CCOCC2)ccc1S(=O)(=O)Nc1cccc(C(F)(F)F)c1` [Example 1.574], the pIC50 was 4.70 to 5.70.
The value for `CCOc1cc(NC(=O)C2CCC(=O)N2C)ccc1S(=O)(=O)Nc1cccc(OC(F)(F)F)c1` (centres unmarked) [Example 1.081] was 5.70 to 6.12.
Take `Cc1cc(NC(=O)c2nccn2C)ccc1S(=O)(=O)Nc1cccc(C(F)(F)F)c1` [Example 1.116]: the pIC50 is 4.70 to 5.70.
In the case of `Cc1cc(NC(=O)c2ccc(F)cc2)ccc1S(=O)(=O)Nc1cccc(C(F)(F)F)c1` [Example 1.002] it was 6.12 to 6.70; in that of `COc1cc(NC(=O)[C@@H]2CCC[C@@H](OC)C2)ccc1S(=O)(=O)Nc1cccc(C(F)(F)F)c1` [Example 1.554], 4.70 to 5.70.
In the case of `CCOc1cc(NC(=O)C(C(=O)O)C2CCC2)ccc1S(=O)(=O)Nc1cccc(OC(F)(F)F)c1` (centres unmarked) [Example 1.218] it was ≥ 6.70; in that of `Cc1cc(NC(=O)[C@@H](O)c2ccccc2)ccc1S(=O)(=O)Nc1cccc(OC(F)(F)F)c1` [Example 1.266], 6.12 to 6.70; in that of `CCOc1cc(NC(=O)[C@@H](O)C(C)C)ccc1S(=O)(=O)Nc1ccc(Cl)cc1` [Example 1.398], 6.12 to 6.70.
`COc1cc(NC(=O)c2ccnn2C)ccc1S(=O)(=O)Nc1cc(Cl)cc(OC(F)(F)F)c1` [Example 1.336]: the pIC50 was 6.12 to 6.70.
`CCOc1cc(NC(=O)C2CCCN(C(C)=O)C2)ccc1S(=O)(=O)Nc1cccc(OC(F)(F)F)c1` (centres unmarked) [Example 1.465]: the pIC50 is 4.70 to 5.70.
On to `CCOc1cc(NC(=O)C(CO)C2CCOC2)ccc1S(=O)(=O)Nc1cccc(OC(F)(F)F)c1` (centres unmarked) [Example 1.199], for which the pIC50 is ≥ 6.70.
Take `CCOc1cc(NC(=O)[C@@H](O)c2ccccc2)ccc1S(=O)(=O)Nc1ccc(F)c(OC(F)(F)F)c1` [Example 1.220]: the pIC50 was ≥ 6.70.
`COc1cc(NC(=O)CC2CCCC2)ccc1S(=O)(=O)Nc1cccc(C(F)(F)F)c1` [Example 1.069]: the pIC50 was 6.12 to 6.70.
In the case of `CCOc1cc(NC(=O)c2ccnc(OC)c2)ccc1S(=O)(=O)Nc1cccc(OC(F)(F)F)c1` [Example 1.076] it was 6.12 to 6.70; in that of `CCOc1cc(NC(=O)C(CC)C(O)C2CCOCC2)ccc1S(=O)(=O)Nc1cccc(OC(F)(F)F)c1` (centres unmarked) [Example 1.039], ≥ 6.70.
The value for `CCCCOc1cc(NC(=O)c2ccns2)ccc1S(=O)(=O)Nc1cccc(C(F)(F)F)c1` [Example 1.124] was 4.70 to 5.70; that for `CCOc1cc(NC(=O)C(=O)c2ccccc2)ccc1S(=O)(=O)Nc1cccc(OC(F)(F)F)c1` [Example 1.023] was 6.12 to 6.70.
The value for `COc1cc(NC(=O)c2ccnn2C)ccc1S(=O)(=O)Nc1ccc(Br)c(OC(F)(F)F)c1` [Example 1.397] was ≥ 6.70.
On to `CCOc1cc(NC(=O)[C@@H](NC(C)=O)C(C)C)ccc1S(=O)(=O)Nc1ccc(Cl)c(OC(F)(F)F)c1` [Example 1.576], for which the pIC50 was ≥ 6.70.
In the case of `CCOc1cc(NC(=O)[C@@H]2C[C@@H](O)[C@@H](O)C2)ccc1S(=O)(=O)Nc1cccc(OC(F)(F)F)c1` [Example 1.280] it was 4.70 to 5.70; in that of `COc1cc(NC(=O)c2ccns2)ccc1S(=O)(=O)Nc1cccc(C(F)(F)F)c1` [Example 1.115], ≥ 6.70; in that of `CCOc1cc(NC(=O)C(CO)CC2CCOCC2)ccc1S(=O)(=O)Nc1cccc(OC(F)(F)F)c1` (centres unmarked) [Example 1.309], 6.12 to 6.70.
In the case of `CCOc1cc(NC(=O)C(O)C2CCCC2)ccc1S(=O)(=O)Nc1cccc(OC(F)(F)F)c1` (centres unmarked) [Example 1.177] it was ≥ 6.70.
For the molecule `CCOc1cc(NC(=O)[C@H]2CC(C)=C(C)C[C@@H]2CO)ccc1S(=O)(=O)Nc1cccc(OC(F)(F)F)c1` [Example 1.250], the pIC50 was ≥ 6.70.
The value for `COc1cc(NC(=O)C2CC3C=CC2O3)ccc1S(=O)(=O)Nc1cccc(C(F)(F)F)c1` (centres unmarked) [Example 1.565] was 6.12 to 6.70; that for `CCOc1cc(NC(=O)C(CO)C2CCCC2)ccc1S(=O)(=O)Nc1cccc(OC(F)(F)F)c1` (centres unmarked) [Example 1.455] was ≥ 6.70.
The value for `CCn1nccc1C(=O)Nc1ccc(S(=O)(=O)Nc2cccc(C(F)(F)F)c2)c(OC)c1` [Example 1.238] was 6.12 to 6.70; that for `CCOc1cc(NC(=O)C2CCCOC2)ccc1S(=O)(=O)Nc1cccc(OC(F)(F)F)c1` (centres unmarked) [Example 1.420] was 6.12 to 6.70; that for `COc1cc(NC(=O)CC(C)(C)O)ccc1S(=O)(=O)Nc1cccc(C(F)(F)F)c1` [Example 1.122] was 4.70 to 5.70.
In the case of `COc1cc(NC(=O)C2CCCCC2)ccc1S(=O)(=O)Nc1cccc(C(F)(F)F)c1` [Example 1.008] it was 4.70 to 5.70; in that of `CCOc1cc(NC(=O)C(C(=O)O)C2CCOC2)ccc1S(=O)(=O)Nc1cccc(OC(F)(F)F)c1` (centres unmarked) [Example 1.436], ≥ 6.70; in that of `CCOc1cc(NC(=O)C2CCCCCC2)ccc1S(=O)(=O)Nc1cccc(OC(F)(F)F)c1` [Example 1.355], 5.70 to 6.12.
Regarding `COc1cc(NC(=O)C(CO)c2ccccc2)ccc1S(=O)(=O)Nc1cccc(C(F)(F)F)c1` (centres unmarked) [Example 1.206], the pIC50 was 6.12 to 6.70.

Usually pIC50 stands for the negative decadic logarithm of the IC50, by convention in mol/L.
